Experimental data from US20260077055A1, “COMPOSITIONS OF POLYPLEXES AND SAPONINS” (SAPREME TECHNOLOGIES B.V., priority 2022, published 2026).
Where a SMILES comes first, the peptide text is derived from it. [ ]: non-standard residue; d: D form. Lys(N3) = [N-]=[N+]=NCCCC[C@H](N)C(=O)O

Experiments:
RBCs = experiment: Erythrocyte aggregation under optical microscope; conditions: up to 80 μg/mL
Protocol: (§1) As a next step, the erythrocyte aggregation propensity of the scaffolds was examined under an optical microscope to visualize possible interactions of the scaffolds and polyplexes with RBCs and their surface (FIG. 24C). […] Next, the impact on haemostasis was investigated. […] Consequently, to investigate the impact of the PAMAM- and peptide-based scaffolds on the patient's blood coagulation, these two parameters were measured in fresh whole blood after incubation of nanoparticles at different concentrations (0 nM-5 μM).

[1] = tested on: extrinsic part of the coagulation cascade; experiment: Prothrombin time in fresh whole blood; conditions: reference 70-130%
Protocol: as §1

red blood cells (RBCs) = experiment: Haemolysis assay; format: cell-based, human; conditions: 2.5-80 μg/mL, 3 h at 37° C.
Protocol: To get a first estimation of the haemolytic activity of the scaffolds and its potential to induce aggregation of red blood cells, possible disruption of red blood cells was investigated by measuring the release of haemoglobin into the supernatant according to the scheme shown in FIG. 24A. First, the red blood cells (RBCs) were treated with solutions containing PAMAM- or peptide-based scaffolds or polyplexes obtained therewith at different concentrations (2.5-80 μg/mL). The incubation was performed for 3 h at 37° C. RBCs treated with PBS under same conditions were used as a negative control while samples treated with Triton X-100 (10%) were used as a positive control corresponding to conditions of full haemolysis. After centrifugation, the absorbance at 540 nm (OD540) of the supernatants was recorded with a spectrometer. The following equation was used for the calculation of the percentages of haemolysis: […]

intrinsic pathway = experiment: Activated partial thromboplastin time in fresh whole blood; conditions: 0.1 μM; reference 26-40 s
Protocol: as §1

EGFR+ A431 cells = experiment: Cell viability (MTS) after polyplex transfection of A431 cells; format: cell-based; conditions: for cell killing activity / saporin gene delivery, K16C npSaporin polyplexes: K16C alone up to about 5000 μM of plasmids (printed), SO1861-EMCH = free, co-administered with K16C-polyplexes
Protocol: Spectrophotometry: Concentrations were determined using either a Thermo Nanodrop 2000 spectrometer or Perkin Elmer Lambda 365 Spectrophotometer. DLS measurements: DLS measurements were performed on a Malvern Nano ZS (Malvern Instruments, U.K.), operating at 633 nm with a 173° scattering angle, at 25 or 37° C. DLS mean diameters were obtained from the intensity particle size distribution provided by Malvern Zetasizer Software. DLS histograms were obtained from the intensity particle size distributions. Zeta-potential: The zeta-potential values of the polyplexes were obtained by laser doppler anemometry (LDA), measuring the mean electrophoretic mobility (Malvern Zetasizer Nano ZS, Malvern Instruments, U.K.). Measurements were performed in 10 mM HEPES pH 7.1, 150 mM NaCl. TEM measurements: TEM measurements were performed on a JEOL JEM-1011 operated at 100 kV electron microscope, equipped with a camera S5 MegaView G2. A drop of a solution of polyplexes (0.1 mg/mL) was settled on a PELCO® TEM carbon type-B film copper grid and allowed to dry at room temperature for 1 h. Infrared Spectroscopy: FT-IR spectra were recorded on a Bruker Vertex 70v, equipped with a RockSolid interferometer, after preparing the samples (1-2 mg) as KBr pellets. Spectra were processed using OPUS 7.8 software (Bruker). NMR Spectroscopy: 1H NMR spectra were recorded on a 11.7 T Bruker DRX-500 spectrometer. Chemical shifts are reported in ppm (o units) downfield from the HOD residual solvent peak (CD3OD). Experiments were recorded acquiring 64-512 scans, with a pre-scan delay (d1) of 12 s, and an acquisition time (aq) of 4 s at 300 K. 13C NMR spectrum was recorder on a 9.39 T Varian Innova 400 spectrometer. MestReNova 14.2 software (Mestrelab Research) was used for spectra processing. Cell culture conditions and treatments: HEK293FT, A431, A2058, Neuro2A, Hepa1-6 and MDA-MB 468 were maintained in 10% FBS-supplemented DMEM medium (PAN-Biotech GmbH, or Lonza Group, Basel, Switzerland)+Pen/Strep at 37° C. with 5% CO2. […] SO1861-EMCH was conjugated into/onto these polyplexes or co-administrated at 966 or 4000 nM to the different cell lines in vitro (as indicated). For this, cells were seeded in a 96 well plate at 5.000-10.000 c/w in 100 μL/well and incubated overnight at 37° C. Before treatment, the mAb-SO1861 and polyplexes were diluted separately in DPBS (PAN-Biotech GmbH) to 10× the required final concentration. The cells received 80 μL/well fresh media, followed by 20 μL/well polyplex solution and 20 μL/well saponin solution. In particular, before K16-polyplex treatments, K16-polyplexes were formulated in 10 mM HEPES, incubated for 30 min at room temperature and then diluted with complete cell culture medium. The complete cell culture medium was exchanged against 100 μL transfection medium. For co-administration of SO1861-EMCH, the transfection medium was supplemented with 2 μg/mL (=966 nM) SO1861-EMCH. Control transfections were performed with Lipofectamine™ 3000 Transfection Reagent (Thermo Fisher Scientific) according to the manufacturer's instruction, using either […] or 100 ng plasmid and with a media change 4-5 hrs after transfection. […] After treatment, the cells were incubated for 72 hr at 37° C. before the cell viability was determined by a MTS-assay performed according to the manufacturer's instruction (CellTiter 96® AQueous One Solution Cell Proliferation Assay, Promega). […]

For [N-]=[N+]=NCCCC[C@H](NC(=O)[C@H](Cc1ccc(O)cc1)NC(=O)CNC(=O)CNC(=O)[C@H](CS)NC(=O)CNC(=O)CNC(=O)CNC(=O)CNC(=O)[C@H](CCCCN)NC(=O)[C@H](CCCCN)NC(=O)[C@H](CCCCN)NC(=O)[C@H](CCCCN)NC(=O)[C@H](CCCCN)NC(=O)[C@H](CCCCN)NC(=O)[C@H](CCCCN)NC(=O)[C@H](CCCCN)NC(=O)[C@H](CCCCN)NC(=O)[C@H](CCCCN)NC(=O)[C@H](CCCCN)NC(=O)[C@H](CCCCN)NC(=O)[C@H](CCCCN)NC(=O)[C@H](CCCCN)NC(=O)[C@H](CCCCN)NC(=O)[C@@H](N)CCCCN)C(N)=O [K16C, K16G4CGGYK (N3)] (H-KKKKKKKKKKKKKKKKGGGGCGGY[Lys(N3)]-NH2), which erythrocyte aggregation (RBCs) is on record?
The erythrocyte aggregation was “did not cause any RBC aggregation”.

And the “prothrombin time (PT)” value ([1]; 0.1 μM)?
The value was 100%.

What about the “prothrombin time (PT)” value ([1]; 0.5 μM) of the same compound?
Its value is 82%.

And the “prothrombin time (PT)” value ([1]; 1 μM)?
Its value is 61%.

And the “prothrombin time (PT)” value ([1]; 5 μM)?
Its value is 33.5%.

What about the haemolytic activity (red blood cells (RBCs)) of the same compound?
The haemolytic activity was “surprisingly low haemolysis degree”.

What about the “partial thromboplastin time (PTT)” value (intrinsic pathway) of the same compound?
Its value is 38.5 s.

And the “cell killing activity / saporin gene delivery, K16C npSaporin polyplexes” value (EGFR+ A431 cells)?
Its value is “practically no cell killing activity”.

What about the “cell killing activity of K16C npSaporin polyplex” value (EGFR+ A431 cells; up to about 1000 pM of plasmid, absence of free saponin or targeted saponin, N/P ratio 10) of the same compound?
Its value is “practically no enhanced cell killing activity”.

“K16G4CGGYK (N3)-SO18610.25 [K16C-(SO1861)0.25 eq]” was tested. Which “cell killing activity / saporin gene delivery, K16C npSaporin polyplexes” value (EGFR+ A431 cells) did it give?
The value was “the most efficient in saporin gene delivery into the cytoplasm”.
